Data on four compounds can be found in patent US20080027072A1, “Potentiation of MC4 receptor activity” (AMPLA Pharmaceuticals, Inc., priority 2006, published 2008).

Assay [1] relates to diet-induced obese male C57BL/6J mice. Kind of assay: 28-day body weight and food intake study in diet-induced obese mice. It counts as in vivo. To be noted: day 29. As to the method:
Sibutramine, which is currently used clinically, and rimonabant, which has recently received regulatory approval for the management of obesity were used as reference compounds.
C57BL/6J mice (7-8 weeks of age) were ordered from Charles River, Margate, Kent. Mice were group housed in polypropylene cages with free access to a high fat diet (D12451 45% of Kcal derived from fat; Research Diets, New Jersey, USA) and tap water at all times. Animals were maintained at 21±4° C. and 55±20% humidity on a normal phase 12 h light-dark cycle (lights on 04:30 h)
Animals were exposed to the high fat diet for 16 weeks. During this time body weight was recorded weekly. At the end of 14 weeks animals were singly housed in polypropylene cages for a further two week period (weeks 14-16) and placed on reverse phase lighting (lights off for 8 h from 9.30-17.30 h) during which time the room was illuminated by red light. Animals were dosed with vehicle orally throughout the baseline period. Body weight and food and water intake was recorded daily. Towards the end of the baseline period animals were allocated to groups. Upon completion of the baseline period, mice were dosed for 28 days with vehicle or test drug.
Body weight and food and water intake were recorded daily. Following drug administration the animals were examined and any overt behavior was recorded. For all dosing, the morning session was timed such that approximately half the mice were dosed at the time of lights out (09:30).
The test compounds were dissolved in 1% methylcellulose. Drug solutions were made up fresh each day 1-2 h before dosing and were administered using a dose volume in the range of 1-3 ml/kg. Drug doses were expressed as free base.
Resulting body weights, food intake and water intake were expressed as mean values±SEM, and the SEMs are calculated from residuals of the statistical model. Body weight data was analysed by ANCOVA with Day 1 as covariate followed by appropriate comparisons (two-tailed) to determine significant differences from the control group. […] Daily food and water intake data was analysed by ANOVA.

Assay [2] addresses T1, human Melonocortin-4 (MC4) receptor (Homo sapiens, UniProt P32245).
T1 construct: expressed in transfected cells; host or cells: HEK293 (ATCC), G418-selected, FACS-sorted clonal cMC4 line
Kind of assay: α-MSH dose-response, intracellular Ca2+ (Indo-1) flow cytometry (DSIS) in clonal MC4 cells, +/- compound. Particulars: compound at a concentration of 1-10 μM. It counts as cell-based.
Description: The cMC4 and Control Cells were plated 24-48 hours in advance, and were harvested with trypsin at ˜80% confluency. Cells were then centrifuged and resuspended two times in Hybridoma Media, the final time at a concentration of 1×10^6 cells/mL. Both cell lines were then loaded with 2 mM of Indo-1 plus 3 μg/mL Biotin-X DHPE and then were incubated for 1 hour on a rotator at room temperature. Cells were washed two times and resuspended at a concentration of 1×10^6 cells/mL in Hybridoma Media. The cMC4 cell line then got 2 μg/ml of Alexa 488-streptavidin (Invitrogen/Molecular Probes). Cells were incubated for an additional 30 minutes on a rocker at room temperature. […]
The probe-loaded cMC4 and Control cell mixture was placed in the Cell Suspension System on the DSIS where they were continuously rocked to keep them in a suspended state. […] The DSIS software, NVS Sampler, recorded a timing file and the CyAn software, Summit, recorded a data file. These two files were then compiled and analyzed by NVS Analyzer (see below) to determine the percent of cells that responded to each concentration. The data were transferred to GraphPAD Prism (GraphPad Software, San Diego, Calif.) for a non-linear regression curve fit that determined the EC50. […]
When the screen was complete, the data files and the timing files were analyzed using NVS Analyzer. […]

Assay [3] concerns diet-induced obese male wild-type C57BL/6J mice. The assay is described as follows: Food intake and body weight, diet-induced obese wild-type mice. To be noted: 40 mg/kg oral, day 2, wild-type. Type of assay: in vivo. As to the method: (§1) Mice were dosed at 40 mg/kg for two days with vehicle or test drug. Body weight and food and water intake were recorded daily.
(§2) The test compound was ground while being diluted in 1% methylcellulose, and the final solution was sonicated to give a uniform suspension suitable for dosing. Drug solutions were made up fresh each day 1-2 h before dosing and were administered using a dose volume in the range of 1-3 ml/kg.

The test system of assay [4] is diet-induced obese male MC4 knockout C57BL/6J mice. The assay is described as follows: Food intake and body weight, diet-induced obese MC4 knockout mice. Particulars: 40 mg/kg oral. Type of assay: in vivo. As for the experimental part:
as §1, §2

The target in assay [5] is T2, MC4 receptor (Homo sapiens, UniProt P32245). The assay is described as follows: Binding experiments with the MC4 receptor inverse agonist AgRP (FIG. 6). The arrangement: expressed in transfected cells.
T2 sequence (P32245 whole entry): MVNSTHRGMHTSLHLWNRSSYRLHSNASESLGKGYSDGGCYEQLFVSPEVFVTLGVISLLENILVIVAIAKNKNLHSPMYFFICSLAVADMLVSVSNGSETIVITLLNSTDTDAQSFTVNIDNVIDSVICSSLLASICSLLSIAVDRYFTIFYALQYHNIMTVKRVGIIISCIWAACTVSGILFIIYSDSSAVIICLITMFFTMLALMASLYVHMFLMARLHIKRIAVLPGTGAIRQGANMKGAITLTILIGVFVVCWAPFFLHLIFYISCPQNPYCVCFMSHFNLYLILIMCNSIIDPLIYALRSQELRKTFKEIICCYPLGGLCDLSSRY
Assay [6] has as its target T2, MC4 receptor. The assay is described as follows: Single-well kinetics of the αMSH response (FIGS. 9A-9E). Type of assay: cell-based. The arrangement: expressed in transfected cells. As for the experimental part:
FIGS. 9A-9E show response kinetics from single-well assays. The response was initiated by αMSH with or without Compound 1. […] Whereas at 1 μM and 300 nM, αMSH onset and peak were increased and sustained. The onset and peak response increased with 3 μM and 10 μM concentrations of Compound 1 at all concentrations of αMSH.

The target of assay [7] is T2, MC4 receptor. Kind of assay: Competition ligand binding assay with [125I]-NDP-α-MSH, HEK293 cell membranes. The arrangement: expressed in transfected cells; host or cells: HEK293 stably expressing human MC4 receptor. As for the experimental part:
The binding was carried out at room temperature for another 2 h. […] Binding was terminated by addition of cold binding buffer and filtration on Whatman GF/B glass-fiber filters using a sampling manifold. The filters were washed 6 times with cold binding buffer and air-dried overnight. The radioactivity was quantified on a TopCounter after adding scintillation fluid. […] Data were analyzed by non-linear regression using program GraphPAD Prism (FIG. 5).

In assay [8] the target is T2, MC4 receptor. The assay is described as follows: ELISA-based cAMP assay in HEK293 cells stably expressing human MC4 receptors. It counts as cell-based. The arrangement: expressed in transfected cells; host or cells: HEK293 stably expressing human MC4 receptor. As to the method: ELISA-based cAMP assay was used to determine ligand-induced cAMP accumulation in HEK293 cells stably expressing human MC4 receptors in 96-well plate format. Compounds and cAMP standards were diluted in DMEM (without FBS and phenol red) containing 1 mM IBMX. Cells were plated in T-75 flasks and cultured for 24 h before use. Cells were removed from tissue culture flasks using enzyme-free cell dissociation buffer, washed and resuspended in DMEM (without FBS and phenol red) containing 1 mM IBMX at a density of 1×10^6 cells/ml. […] After incubation for 1 h, 50 μl of lysis buffer (0.5% NP-40 in TBS) was added, and incubated for 30 min. After adding rabbit anti-cAMP antibody (Sigma) diluted in TBST (TBS containing 0.05% Tween 20) (25 μl/well) and incubating for 30 min, 25 μl of cAMP-HRP conjugate dilution (in TBST) was added, and incubated for another 1 h. The plate was washed 6 times with TBST. To each well 200 μl of substrate (SuperSignal ELISA Pico Chemiluminesent substrate, Pierce, #37070) was added. The chemiluminescence activity was measured by a luminescence plate reader (NOVAstar, BMG Labtech). cAMP amount for each sample was estimated from cAMP standard curve.
In general terms: An ELISA detects its analyte on a solid surface through an enzyme-linked reagent.

pEC50: −log10 of the molar value.

T1 sequence (P32245 whole entry): as above

For the compound `CC(C)CC(N(C)C)C1(c2ccc(Cl)cc2)CCC1` (stereo not drawn) [Sibutramine], the “reduction of body weight” value in assay [1] (20 mg/kg oral) is on record as 2%.
Take `Cc1c(C(=O)NN2CCCCC2)nn(-c2ccc(Cl)cc2Cl)c1-c1ccc(Cl)cc1` [Rimonabant]: in assay [1] (10 mg/kg oral), the “reduction of body weight” value is 15% and the “weight reduction as compared to vehicle, significance” value is given as “statistically significant weight reduction”.
One may read the pEC50 as the EC50 on a negative log10 scale, so that one unit is a factor of ten. Take `OC1(c2ccc(Cl)cc2)CCN(Cc2c[nH]c3ccccc23)CC1` [Compound 1]: the “shift in the EC50 of α-MSH” value in assay [2] is recorded as “left shift”. In assay [3], the “body weight as compared to vehicle” value is given as “statistically significant decrease” and the “reduction in food intake as compared to vehicle” value is roughly 40%. Also, in assay [4], the “body weight as compared to vehicle” value is listed as “did not show a similar decrease” and the “reduction in food intake as compared to vehicle” value is “did not show a similar reduction”. For the same compound, the “dissociation of AgRP from the MC4 receptor” value in assay [5] is “increases the dissociation”. Also, the “onset and peak response to αMSH” value in assay [6] (3 μM and 10 μM Compound 1, all concentrations of αMSH) is recorded as “increased”. For the same compound, in assay [6] (10 μM Compound 1, 100 nM and 30 nM αMSH (FIG. 9E)), the “activity induced by the compound itself” value was “low level activity”. Also, the “maximum peak response to αMSH” value in assay [6] (low concentrations of Compound 1) is on record as “did not appreciably increase”. Moreover, in assay [7], the pEC50 was 5.40. In assay [8] (FIG. 8, cAMP), the “effect on AgRP activity” value is reported as “attenuates” and the “effect on α-MSH activity” value was “potentiates”.
Regarding `Clc1ccc(N2CCN(Cc3c[nH]c4ncccc34)CC2)cc1` [Compound 2], the “shift in the EC50 of α-MSH” value in assay [2] was “left shift”. Besides, in assay [7], the pEC50 is 3.60. Further, the “effect on the response of NDP-α-MSH” value in assay [8] (cAMP accumulation) was “potentiate”.
